In brackets after ≈: the same amount, converted by molar mass. Like-named read-outs stand apart in the source and are kept apart here.
Key:
[1] = Phase 2 study in adults with classic CAH: safety; assay type: in vivo, human; details: patients with CAH, 5-fold range of doses
Description: (§1) Cohort A of the Phase 2 Study includes a 6-week, multiple-dose, dose escalation study of Compound 1 for the treatment of adults with classic CAH. After screening, eligible patients will be enrolled into a 6-week treatment period followed by a 4-week washout/safety follow-up period.
This cohort will be conducted in approximately 9 patients, who will receive Compound 1 daily for up to 6 weeks. Compound 1 will be administered as an oral daily dose. Patients will undergo titration of Compound 1 through three escalating dosage strengths at 2-week intervals. Patients will have overnight PK/PD assessments performed at baseline, which include an pre-dose overnight assessment and a post-dose overnight assessment for PK/PD following administration of the first dose. At the end of each 2-week dosing period, patients will return for single overnight visits for steady-state PK/PD assessments. A follow-up outpatient visit will occur 30 days after their last dose. Upon completion of the initial cohort (Cohort A), the study will proceed to a multiple ascending dose (MAD) design with up to 3 sequential cohorts (Cohorts B, C, and D) to further evaluate the safety, PK, and PD of various SPR001 dosing regimens and to identify an optimal dose regimen. […]
• 1. […] To assess the efficacy of Compound 1 in subjects with classic CAH as measured by percent and absolute change in 17-OHP compared to baseline. […]

[2] = tested on: 17-OHP; experiment: Phase 2 study in adults with classic CAH: 17-OHP; assay type: in vivo, human; details: patients with classic CAH
Description: as §1
This cohort will be conducted in approximately 9 patients, who will receive Compound 1 daily for up to 6 weeks. Compound 1 will be administered as an oral daily dose. Patients will undergo titration of Compound 1 through three escalating dosage strengths at 2-week intervals. Patients will have overnight PK/PD assessments performed at baseline, which include an pre-dose overnight assessment and a post-dose overnight assessment for PK/PD following administration of the first dose. At the end of each 2-week dosing period, patients will return for single overnight visits for steady-state PK/PD assessments. A follow-up outpatient visit will occur 30 days after their last dose. Upon completion of the initial cohort (Cohort A), the study will proceed to a multiple ascending dose (MAD) design with up to 3 sequential cohorts (Cohorts B, C, and D) to further evaluate the safety, PK, and PD of various SPR001 dosing regimens and to identify an optimal dose regimen. Each cohort will undergo a 2-week run-in period, a 2-week treatment period, and a 30-day washout and safety follow-up period. During the run-in period, which will occur during screening, subjects will document in a paper diary each dose of glucocorticoid medication taken, the time of each meal, and the time they went to bed and woke up each day, to ensure compliance with background glucocorticoid regimens and the stability of their daily routine.
• 1. To evaluate the safety of Compound 1 in subjects with CAH. • 2. To assess the efficacy of Compound 1 in subjects with classic CAH as measured by percent and absolute change in 17-OHP compared to baseline.
This allows for steroid taper. […] 50% of subjects were within the guideline range (1200 ng/dL) after treatment.

[3] = Solubility in different aqueous media (24 hour at room temperature); assay type: physicochemical
[4] = Study 1: single-escalating oral dose pharmacokinetics in healthy adult subjects; assay type: in vivo, human; details: for Cmax / AUC0-tlast / AUC0-∞ / CL/F / t1/2: geometric mean
Experimental: Study 1 was the first-in-human study that investigated the safety, tolerability, and PK of single-escalating doses of Compound 1, given orally, to healthy adult subjects. […] The data from this study were used for the selection of doses for Study 2.
In Study 1, Compound 1 was administered to healthy adult subjects as a single PO dose of 2, 10, 50, 150, 400, or 800 mg in the fed state and 150 mg in the fasted state. Absorption occurred moderately late, achieving peak Cmax between 4 to 6 hours following dosing in the fed state.
When Compound 1 was given in the fed state, median time to reach maximum plasma concentration (Tmax) occurred between 4 and 6 hours.
As part of this single-dose escalation study, a food effect PK investigation was performed to examine Compound 1 exposures in both the fed and fasted states at the 150-mg dose level. A total of 6 subjects were administered 150 mg Compound 1 in each of these 2 dosing groups. Of these 6 subjects, 4 subjects received Compound 1 at the same dose in both fed and fasted states. […] Table 6 provides a summary of the PK parameters at the 150-mg dose level under both fed and fasted state conditions.
PK parameters AUC0-∞ and Cmax were analyzed separately for dose proportionality for Compound 1 from 50 to 800 mg when administered in the fed state. […] Dose proportionality across administered doses in the fed state could not be concluded on the basis of AUC0-∞ or Cmax.

[5] = single oral dose 150 mg, fasted

With `CCC(CC)c1cc(C)nc2c(-c3sc(N4CCOCC4)nc3Cl)c(C)nn12` [Compound 1, 3-(4-Chloro-2-(morpholin-4-yl)thiazol-5-yl)-7-(1-ethylpropyl)-2,5-dimethylpyrazolo(1,5-a)pyrimidine] the tolerability [1] was “generally well-tolerated”, the “subjects with more than 25% reduction in 17-OHP” value [2] was 50% and the “subjects with reduction in 17-OHP” value [2] was 80%. The “subjects within the guideline range (1200 ng/dL) of 17-OHP after treatment” value [2] was 50%, the “Solubility Description” value ([3]; 0.001N HCl, equilibrium pH 3.36) was “Insoluble” and the “Solubility Description” value ([3]; 0.01N HCl, equilibrium pH 2.06) was “Insoluble”. The “Solubility Description” value ([3]; 0.1N HCl, equilibrium pH 1.06) was “insoluble”, the “Solubility Description” value ([3]; 0.1N NaOH, equilibrium pH 11.65) was “Insoluble” and the “Solubility Description” value ([3]; FaSSIF, equilibrium pH 5.16) was “insoluble”. For the same molecule, the “Solubility Description” value ([3]; FaSSIF, equilibrium pH 6.73) was “Insoluble”, the “Solubility Description” value ([3]; SGF, equilibrium pH 2.25) was “Insoluble” and the “Solubility Description” value ([3]; Water, equilibrium pH 7.78) was “insoluble”. For the same molecule, the “Solubility Description” value ([3]; pH 4.5 Acetate (USP), equilibrium pH 4.65) was “Insoluble”, the “Solubility Description” value ([3]; pH 6.0 Phosphate (USP), equilibrium pH 6.08) was “Insoluble” and the “Solubility Description” value ([3]; pH 7.5 Phosphate (USP), equilibrium pH 7.57) was “Insoluble”. For the same molecule, the Solubility ([3]; pH 7.5 Phosphate (USP), equilibrium pH 7.57, n = 2, 24 hour, room temperature) was 0.6 µg/mL (≈ 1.43 µM), the solubility at 24 h ([3]; water, thermodynamic from solid) was less than 2 µg/mL and the “increase of AUC0-∞ for every doubling of dose, relative to dose proportionality” value ([4]; 50 to 800 mg, fed state) was 1.74 times. For the same molecule, the “mean AUC0-∞, fed state relative to fasted state” value ([4]; 150-mg dose, fed vs fasted) was “approximately 3 fold”, the “mean Cmax, fed state relative to fasted state” value ([4]; 150-mg dose, fed vs fasted) was roughly 11 fold and the half-life ([4]; human, plasma, single PO dose, fed and fasted state, overall range, read-out: half-life (t1/2), range) was 11 to 101 h. For the same molecule, the Tmax ([4]; human, plasma, single oral dose 150 mg, fasted state, range, read-out: Tmax, range) was 6 to 12 h, the Tmax ([4]; single oral dose 2 mg, fed, median) was 6.00 h and the Cmax ([4]; single oral dose 2 mg, fed, plasma) was 0.867 ng/mL. It also gave a Tmax ([4]; single oral dose 10 mg, fed, median) of 4.00 h, a Cmax ([4]; single oral dose 10 mg, fed, plasma) of 3.01 ng/mL and an AUC0-tlast ([4]; single oral dose 50 mg, fed) of 152 ng·h/mL. The “AUC0-∞” value ([4]; single oral dose 50 mg, fed) was 165 ng·h/mL, the CL/F ([4]; single oral dose 50 mg, fed) was 302 L/h and the t1/2 ([4]; single oral dose 50 mg, fed) was 31 h. For the same molecule, the Tmax ([4]; single oral dose 50 mg, fed, median) was 4.00 h, the Cmax ([4]; single oral dose 50 mg, fed, plasma) was 19.5 ng/mL and the AUC0-tlast [4, 5] was 288 ng·h/mL. The “AUC0-∞” value [4, 5] was 331 ng·h/mL, the CL/F [4, 5] was 454 L/h and the t1/2 [4, 5] was 38.4 h. The Tmax ([4]; single oral dose 150 mg, fasted, median) was 10.05 h, the Cmax ([4]; single oral dose 150 mg, fasted, plasma) was 8.22 ng/mL and the AUC0-tlast ([4]; single oral dose 150 mg, fed) was 891 ng·h/mL. The “AUC0-∞” value ([4]; single oral dose 150 mg, fed) was 956 ng·h/mL, the CL/F ([4]; single oral dose 150 mg, fed) was 157 L/h and the t1/2 ([4]; single oral dose 150 mg, fed) was 29.2 h. The Tmax ([4]; single oral dose 150 mg, fed, median) was 4.00 h, the Cmax ([4]; single oral dose 150 mg, fed, plasma) was 93.4 ng/mL and the AUC0-tlast ([4]; single oral dose 400 mg, fed) was 2300 ng·h/mL. For the same molecule, the “AUC0-∞” value ([4]; single oral dose 400 mg, fed) was 2580 ng·h/mL, the CL/F ([4]; single oral dose 400 mg, fed) was 155 L/h and the t1/2 ([4]; single oral dose 400 mg, fed) was 44.2 h. For the same molecule, the Tmax ([4]; single oral dose 400 mg, fed, median) was 4.00 h, the Cmax ([4]; single oral dose 400 mg, fed, plasma) was 207 ng/mL and the AUC0-tlast ([4]; single oral dose 800 mg, fed) was 4390 ng·h/mL. For the same molecule, the “AUC0-∞” value ([4]; single oral dose 800 mg, fed) was 4850 ng·h/mL, the CL/F ([4]; single oral dose 800 mg, fed) was 165 L/h and the t1/2 ([4]; single oral dose 800 mg, fed) was 41.9 h. For the same molecule, the Tmax ([4]; single oral dose 800 mg, fed, median) was 6.00 h and the Cmax ([4]; single oral dose 800 mg, fed, plasma) was 382 ng/mL.

From patent publication US20210137935A1, “CORTICOTROPIN RELEASING FACTOR RECEPTOR ANTAGONISTS” (Spruce Biosciences, Inc., priority 2017, published 2021)
